What all share (assay): ≥ marks a high value that may be exact or a test limit, other limits are often not marked, values filed in µg/mL are converted to µM
Experiment [1] relates to Bacillus amyloliquefaciens ATCC 23842.
In experiment [2] the test system is Bacillus cereus ATCC 14579.
Experiment [3] relates to Bacillus licheniformis ATCC 14580.
The test system of experiment [4] is Bacillus subtilis ATCC 6051.
The subject of experiment [5] is Enterococcus faecalis 1F-1.
Experiment [6] deals with Enterococcus faecium 5F-10.
Experiment [7] deals with Escherichia coli ATCC 25922.
Experiment [8] deals with Proteus mirabilis ATCC 35659.
Experiment [9] deals with Pseudomonas aeruginosa PAO1.
The test system of experiment [10] is Salmonella enterica ATCC H9812.
Experiment [11] relates to Staphylococcus aureus ATCC 29213.
For experiment [12], the system named is Pseudomonas aeruginosa 21328.
Experiment [13] concerns Pseudomonas aeruginosa 25349.
For experiment [14], the system named is Pseudomonas aeruginosa CICC 10419.
Experiment [15] deals with Pseudomonas aeruginosa CICC 11411.
Experiment [16] relates to Pseudomonas aeruginosa CICC 11421.
Experiment [17] deals with Pseudomonas aeruginosa CICC 11431.
The test system of experiment [18] is Pseudomonas aeruginosa CICC 21625.
In experiment [19] the test system is Pseudomonas aeruginosa CICC 21630.
Experiment [20] deals with Acinetobacter baumannii ATCC 17978.
The subject of experiment [21] is Acinetobacter baumannii.
Experiment [22] has as its system Candida albicans 17-88.
The subject of experiment [23] is Candida albicans NRRL Y-326.
The test system of experiment [24] is Candida albicans NRRL Y-6359.
For experiment [25], the system named is Candida albicans.
The subject of experiment [26] is Candida dubliniensis.
The test system of experiment [27] is Candida glabrata.
In experiment [28] the test system is Candida krusei.
Experiment [29] concerns Candida parapsilosis NRRL Y-1761.
Experiment [30] concerns Candida parapsilosis NRRL Y-1763.
Experiment [31] relates to Candida parapsilosis.
For experiment [32], the system named is Candida tropicalis.
For experiment [33], the system named is Cutibacterium acnes ATCC 11827.
In experiment [34] the test system is Cutibacterium acnes ATCC 6919.
Experiment [35] concerns Cutibacterium acnes.
Experiment [36] deals with Debaryomyces hansenii.
The test system of experiment [37] is Enterobacter cloacae.
The test system of experiment [38] is Klebsiella pneumoniae ATCC 10031.
The test system of experiment [39] is Klebsiella pneumoniae.
The test system of experiment [40] is Kluyveromyces lactis.
For experiment [41], the system named is Pseudomonas aeruginosa ATCC 19660.
Experiment [42] concerns Pseudomonas aeruginosa ATCC 27853.
Experiment [43] has as its system Pseudomonas aeruginosa.
Experiment [44] deals with Staphylococcus aureus ATCC 33592.
The subject of experiment [45] is Staphylococcus aureus MR.
The test system of experiment [46] is Staphylococcus aureus.
For experiment [47], the system named is Staphylococcus epidermidis ATCC 51625.
For experiment [48], the system named is Candida albicans ATCC 90028.
The test system of experiment [49] is Staphylococcus aureus ATCC 25923.
Experiment [50] deals with Staphylococcus epidermidis ATCC 12228.
Experiment [51] deals with Trichophyton rubrum ATCC 28189.

Converted amounts (≈) assume the structure as drawn.

With `CC(C)C[C@H](NC(=O)[C@H](CC(C)C)NC(=O)[C@@H](N)CCC(=O)O)C(=O)N[C@@H](CO)C(=O)N[C@@H](CCCN=C(N)N)C(=O)N[C@H](C(=O)O)C(C)C` [ELLSRV], the MIC in experiment [1], in experiment [2], in experiment [3], in experiment [4], in experiment [5] and in experiment [6] was at least 179 µM each time. Also, the MIC in [7] was 89.4 µM (≈ 64 µg/mL); in experiment [8], at least 179 µM; in [9], over 179 µM; in experiment [10], at least 89.4 µM; in experiment [11], over 179 µM.

Regarding `CC(C)C[C@H](NC(=O)[C@H](CCCN=C(N)N)NC(=O)[C@H](CCCN=C(N)N)NC(=O)[C@H](CC(C)C)NC(=O)[C@H](CCCN=C(N)N)NC(=O)[C@H](CCCN=C(N)N)NC(=O)[C@H](CCCN=C(N)N)NC(=O)[C@H](Cc1c[nH]c2ccccc12)NC(=O)[C@H](Cc1c[nH]c2ccccc12)NC(=O)[C@H](CCCN=C(N)N)NC(=O)[C@H](CCCN=C(N)N)NC(=O)[C@H](CCCN=C(N)N)NC(=O)[C@H](CC(C)C)NC(=O)[C@H](CCCN=C(N)N)NC(=O)[C@H](CCCN=C(N)N)NC(=O)[C@@H](N)CC(C)C)C(N)=O` [LRRLRRRWWRRRLRRL], the MIC in experiment [7] stood at 6.65 µM (≈ 16 µg/mL); in experiment [12] it was 13.3 µM (≈ 32 µg/mL); in experiment [13] it was 4.7 µM (≈ 11.3 µg/mL); in experiment [14] it was 6.65 µM (≈ 16 µg/mL); in experiment [15] it was 3.33 µM (≈ 8 µg/mL); in experiment [16] it was 6.65 µM (≈ 16 µg/mL). Moreover, the MIC was 6.65 µM (≈ 16 µg/mL) in experiment [17], 6.65 µM (≈ 16 µg/mL) in experiment [18], 3.33 µM (≈ 8 µg/mL) in [19] and 3.33 µM (≈ 8 µg/mL) in experiment [11].

Regarding `CC[C@H](C)[C@@H]1NC(=O)CNC(=O)[C@H](CCCCN)NC(=O)[C@H](Cc2ccc(O)cc2)NC(=O)[C@@H]2CSSC[C@H](NC1=O)C(=O)N[C@@H](Cc1ccccc1)C(=O)N[C@@H](CCCCN)C(=O)N[C@@H](CCCCN)C(=O)N[C@H](C(=O)N[C@@H](CCCCN)C(N)=O)CSSC[C@H](NC(=O)[C@H](Cc1ccccc1)NC(=O)[C@@H](N)CCCN=C(N)N)C(=O)N[C@@H](Cc1c[nH]c3ccccc13)C(=O)N[C@@H](CCCCN)C(=O)N[C@@H](C(C)C)C(=O)N2` [RFCWKVCYKGICFKKCK], the MIC was found to be 7.47 µM (≈ 16 µg/mL) in [20]; 3.74 µM (≈ 7.98 µg/mL) in experiment [21]; 15 µM (≈ 32 µg/mL) in experiment [22]; 7.47 µM (≈ 16 µg/mL) in [23]; 1.87 µM (≈ 3.99 µg/mL) in experiment [24]; 10.6 µM (≈ 22.7 µg/mL) in [25]. The MIC in experiment [26] was found to be 7.5 µM (≈ 16 µg/mL); in experiment [27], 15 µM (≈ 32 µg/mL); in experiment [28], 10.6 µM (≈ 22.7 µg/mL); in experiment [29], 7.47 µM (≈ 16 µg/mL); in experiment [30], 0.934 µM (≈ 2 µg/mL); in [31], 15 µM (≈ 32 µg/mL). Further, the MIC turned out to be 2.65 µM (≈ 5.66 µg/mL) in experiment [32]; 3.74 µM (≈ 7.98 µg/mL) in [33]; 3.74 µM (≈ 7.98 µg/mL) in experiment [34]; 1.87 µM (≈ 3.99 µg/mL) in experiment [35]; 7.5 µM (≈ 16 µg/mL) in experiment [36]; 3.74 µM (≈ 7.98 µg/mL) in experiment [37]. Also, the MIC is 3.74 µM (≈ 7.98 µg/mL) in [38]; 2.64 µM (≈ 5.64 µg/mL) in [39]; 3.7 µM (≈ 7.9 µg/mL) in [40]; 1.87 µM (≈ 3.99 µg/mL) in experiment [41]; 1.87 µM (≈ 3.99 µg/mL) in experiment [42]; 1.87 µM (≈ 3.99 µg/mL) in experiment [43]. Further, the MIC in experiment [44] is 1.87 µM (≈ 3.99 µg/mL); in experiment [45], 1.87 µM (≈ 3.99 µg/mL); in [46], 2.64 µM (≈ 5.64 µg/mL); in experiment [47], 3.74 µM (≈ 7.98 µg/mL).

As for `CC[C@H](C)[C@H](NC(=O)[C@H](Cc1c[nH]c2ccccc12)NC(=O)[C@H](CCCCN)NC(=O)[C@H](Cc1cnc[nH]1)NC(=O)[C@H](Cc1ccccc1)NC(=O)[C@H](CCC(=O)O)NC(=O)[C@H](CCCN=C(N)N)NC(=O)[C@H](CC(C)C)NC(=O)[C@@H](N)Cc1ccccc1)C(=O)N[C@@H](CCC(=O)O)C(=O)N[C@@H](CCCN=C(N)N)C(=O)N[C@H](C(=O)N[C@H](C(=O)NCC(=O)N[C@@H](Cc1c[nH]c2ccccc12)C(=O)N[C@@H](CC(C)C)C(=O)NCC(=O)N[C@@H](CCCCN)C(=O)N[C@H](C(=O)N[C@@H](Cc1ccccc1)C(N)=O)C(C)C)C(C)C)C(C)C` [FLREFHKWIERVVGWLGKVF], the MIC was at least 32 µM in experiment [48], 32 µM (≈ 81.5 µg/mL) in experiment [49], 21.3 µM (≈ 54.3 µg/mL) in [50] and at least 256 µM in experiment [51].

The values are drawn from DBAASP.
